Measurements: patent US5847159A, “1-[ω-(3,4-dihydro-2-naphthalenyl)alkyl]-cyclic amine derivatives, process for preparing the same, and pharmaceutical composition containing the same” (priority 1995, dated 1998)
Where a name gives a salt, the structure may show the parent alone.

System: rhythmic bladder contractions (micturition reflex)
Assay: Inhibitory effect on rhythmic bladder contractions (micturition reflex)
Type: in vivo, Female Std-Wistar rats
Conditions: i.d., rat; for inhibition in vivo at 10 mg/kg / inhibition in vivo at 30 mg/kg: intraduodenal, mean over two hours, read-out: Inhibitory rate on contractile frequency; for inhibition in vivo at 10 mg/kg / ED50 / inhibition in vivo at 30 mg/kg: 2 h; for ED50: two hours, read-out: ED50, inhibitory effect on contractile frequency; for Potency on frequency of rhythmic bladder contractions relative to inaperisone hydrochloride (Compound A): compared with Compound A
Description: Inhibitory effect on rhythmic bladder contractions (micturition reflex)
The experiment was carried out according to the method of Maggi, C. […] It is generally accepted that the rhythmic bladder contractions evoked by instillation of saline solution into the bladder are mediated via the micturition reflex pathway like that of natural urination.
Female Std-Wistar rats weighing 160-190 g were used in groups of 3-4 animals. Under urethane anesthesia (1 g/kg, s.c.), both ureters were tied and cut at the side of kidney after a mid line incision of the abdomen. A cannula, connected to a syringe and a pressure transducer, was inserted into the bladder via the external urethral orifice and ligated around the proximal urethra. The animal was allowed to stay for about 30 minutes after the operation. The bladder was slowly filled with warm saline solution (0.4-1 ml) by means of a syringe until rhythmic contractions were induced. The change of the intravesical pressure was recorded on a recorder via a pressure transducer. After the rhythmic contractions became constant, test compounds dissolved or suspended in 0.5% aqueous tragacanth solution were administered via the cannula inserted for intraduodenal administration. The effect of each compound on the contractile frequency was investigated every 15 minutes till two hours after the administration.
The inhibitory rate on the contractile frequency (two hours) was expressed as the mean value of the inhibitory rates at an every 15-minute interval for two hours after the administration, which was determined based on the contractile frequency for 15 minutes before the administration.

`C1=C(CCCN2CCCCC2)CCc2ccccc21` [Ex. 3] was tested, and the “Effect on the amplitude of contraction” value was “suppressed the amplitude of contraction” and the inhibition in vivo at 10 mg/kg was 38%.

`C1=C(CCCCN2CCCC2)CCc2ccccc21` [Ex. 4] was tested, and the ED50 was 11.4 mg/kg, the “Effect on the amplitude of contraction” value was “suppressed the amplitude of contraction” and the “Potency on frequency of rhythmic bladder contractions relative to inaperisone hydrochloride (Compound A)” value was about 3 times more potent.

With `C1=C(CCCCN2CCCCC2)CCc2ccccc21` [Ex. 6] the inhibition in vivo at 10 mg/kg was 42%.

Compound `Fc1cccc2c1CCC(CCN1CCCCC1)=C2` [Ex. 8] has an inhibition in vivo at 30 mg/kg of 62%.

`Fc1cccc2c1CCC(CCN1CCCCCC1)=C2` [Ex. 9] was tested, and the inhibition in vivo at 10 mg/kg was 47%.

`Fc1ccc2c(c1)CCC(CCN1CCCC1)=C2` [Ex. 10] showed an inhibition in vivo at 10 mg/kg of 33%.

Work on `Fc1ccc2c(c1)CCC(CCN1CCCCC1)=C2` [Ex. 11] yielded an inhibition in vivo at 30 mg/kg of 60%.

For `Fc1ccc2c(c1)C=C(CCN1CCCC1)CC2` [Ex. 12], the “Effect on the amplitude of contraction” value was “suppressed the amplitude of contraction” and the inhibition in vivo at 10 mg/kg was 35%.

In the case of `Fc1ccc2c(c1)C=C(CCN1CCCCC1)CC2` [Ex. 13], the inhibition in vivo at 30 mg/kg was 77%.

`Clc1cccc2c1CCC(CCN1CCCC1)=C2` [Ex. 14] was tested, and the inhibition in vivo at 10 mg/kg was 49%.

With `Clc1ccc2c(c1)C=C(CCN1CCCC1)CC2` [Ex. 15] the inhibition in vivo at 10 mg/kg was 44%.

`Cc1cccc2c1CCC(CCN1CCCCC1)=C2` [Ex. 18] gave an inhibition in vivo at 30 mg/kg of 51%.

For `Cc1ccc2c(c1)C=C(CCN1CCCC1)CC2` [Ex. 20], the “Effect on the amplitude of contraction” value was “suppressed the amplitude of contraction” and the inhibition in vivo at 30 mg/kg was 67%.

With `COc1cccc2c1CCC(CCN1CCCCC1)=C2` [Ex. 26] the ED50 was 29.1 mg/kg and the “Effect on the amplitude of contraction” value was “suppressed the amplitude of contraction”.

`COc1cccc2c1CCC(CCCCCN1CCCCC1)=C2` [Ex. 32] gave an inhibition in vivo at 10 mg/kg of 47%.

Compound `COc1ccc2c(c1)C=C(CCN1CCCCC1)CC2` [Ex. 34] has an inhibition in vivo at 30 mg/kg of 65%.

In the case of `Fc1cc2c(cc1F)CCC(CCN1CCCC1)=C2` [Ex. 36, 1-[2-(6,7-difluoro-3,4-dihydro-2-naphthalenyl)ethyl]pyrrolidine], the ED50 was 12.9 mg/kg, the “Effect on the amplitude of contraction” value was “suppressed the amplitude of contraction” and the “Potency on frequency of rhythmic bladder contractions relative to inaperisone hydrochloride (Compound A)” value was about 3 times more potent.

In the case of `Cc1cc2c(cc1C)CCC(CCN1CCC1)=C2` [Ex. 41], the “Effect on the amplitude of contraction” value was “suppressed the amplitude of contraction” and the inhibition in vivo at 10 mg/kg was 38%.

`Cc1cc2c(cc1C)CCC(CCN1CCCCCC1)=C2` [Ex. 44] showed an inhibition in vivo at 10 mg/kg of 34%.

Compound `Cc1cc2c(cc1C)CCC(CCN1CCCCCCC1)=C2` [Ex. 45] has an inhibition in vivo at 10 mg/kg of 48%.

`CCc1cc2c(cc1CC)CCC(CCN1CCCC1)=C2` [Ex. 46, 1-[2-(6,7-diethyl-3,4-dihydro-2-naphthalenyl)ethyl]pyrrolidine] showed an ED50 of 12.4 mg/kg.

`C1=C(CCN2CCCC2)CCc2cc3c(cc21)CCC3` [Ex. 47] showed an inhibition in vivo at 10 mg/kg of 37%.

`C1=C(CCN2CCCC2)CCc2cc3c(cc21)OCO3` [Ex. 49] was tested, and the “Effect on the amplitude of contraction” value was “suppressed the amplitude of contraction” and the inhibition in vivo at 10 mg/kg was 46%.

`Cc1cc2c(cc1C)CCC(CCN1C(C)CCC1C)=C2` (centres unmarked) [Ex. 50, 1-[2-(3,4-dihydro-6,7-dimethyl-2-naphthalenyl)ethyl]-2,5-dimethylpyrolidin] was tested, and the “Effect on the amplitude of contraction” value was “suppressed the amplitude of contraction” and the inhibition in vivo at 10 mg/kg was 50%.

`Fc1cc(F)c2c(c1)C=C(CCN1CCCC1)CC2` [Ex. 52, 1-[2-(5,7-difluoro-3,4-dihydro-2-naphthalenyl)ethyl]-pyrrolidine] was tested, and the inhibition in vivo at 10 mg/kg was 52%.

`Fc1cccc2c1CCC(CCN1CCC(F)C1)=C2` (centres unmarked) [Ex. 53] was tested, and the inhibition in vivo at 10 mg/kg was 35%.

In the case of `Fc1ccc2c(c1F)CCC(CCN1CCCC1)=C2` [Ex. 54], the inhibition in vivo at 10 mg/kg was 43%.

In the case of `Fc1ccc(F)c2c1C=C(CCN1CCCC1)CC2` [Ex. 55], the inhibition in vivo at 10 mg/kg was 43%.

With `COC(=O)c1ccc2c(c1)C=C(CCN1CCCC1)CC2` [Ex. 56, 1-[2-(3,4-Dihydro-7-methoxycarbonyl-2-naphthalenyl)ethyl]pyrrolidine] the “Effect on the amplitude of contraction” value was “suppressed the amplitude of contraction” and the inhibition in vivo at 10 mg/kg was 34%.

`COc1ccc2c(c1)C=C(CCN1CCCC1)CC2` [Ex. 58, 1-[2-(3,4-dihydro-7-methoxy-2-naphthalenyl)ethyl]-pyrrolidine] showed an inhibition in vivo at 10 mg/kg of 34%.

`OC1CCN(CCC2=Cc3ccccc3CC2)C1` (centres unmarked) [Ex. 60, 1-[2-(3,4-Dihydro-2-naphthalenyl)ethyl]-3-hydroxypyrrolidine hydrochloride] gave an inhibition in vivo at 10 mg/kg of 33%.

For `COc1cc2c(cc1OC)CCC(CCN1CCCC1)=C2` [Ex. 62, 1-[2-(3,4-dihydro-6,7-dimethoxy-2-naphthalenyl)ethyl]-pyrrolidine], the ED50 was 6.1 mg/kg, the “Effect on the amplitude of contraction” value was “suppressed the amplitude of contraction” and the “Potency on frequency of rhythmic bladder contractions relative to inaperisone hydrochloride (Compound A)” value was “approximately 5.7 times more potent”.

Compound `Cc1cc2c(cc1C)CCC(CCN1CCC(O)C1)=C2` (centres unmarked) [Ex. 66] has an inhibition in vivo at 10 mg/kg of 34%.

For `COc1cc2c(cc1C)CCC(CCN1CCCC1)=C2` [Ex. 68, 1-[2-(3,4-dihydro-7-methoxy-6-methyl-2-naphthalenyl)ethyl]pyrrolidine], the ED50 was 7.4 mg/kg, the “Effect on the amplitude of contraction” value was “suppressed the amplitude of contraction” and the “Potency on frequency of rhythmic bladder contractions relative to inaperisone hydrochloride (Compound A)” value was about 4.7 times more potent.

`Cc1cc2c(cc1CO)CCC(CCN1CCCC1)=C2` [Ex. 72, 1-[2-(3,4-dihydro-6-hydroxymethyl-7-methyl-2-naphthalenyl)ethyl]pyrrolidin] was tested, and the “Effect on the amplitude of contraction” value was “suppressed the amplitude of contraction” and the inhibition in vivo at 10 mg/kg was 49%.

In the case of `Cc1cc2c(cc1C(=O)O)CCC(CCN1CCCC1)=C2` [Ex. 74, 1-[2-(6-carboxy-3,4-dihydro-7-methyl-2-naphthalenyl)-ethyl]pyrrolidine], the inhibition in vivo at 10 mg/kg was 42%.
